How the values were obtained:
Type in all cases: in vivo
rat VPA model [1] = experiment: Irritability-like behaviour: bottle brush test in rat VPA model, juvenile P30 and adult (Example 5; DS = DS-E); conditions: risperidone 0.125 mg/kg
Method: (§1) Time-mated female Wistar rats were administered a single dose of valproic acid (VPA, 600 mg/kg, i.p.) on gestational day 12.5. Male offspring were delivered and confirmation of the VPA induced developmental deficit was rapidly achieved by examination of characteristic “tail kinks” in the juvenile animals. The timeline of experiments is outlined in FIG. 8 and animals were randomly allocated to treatment groups (Table O).
(§2) Control animals were administered sterile saline (0.9% w/v, i.p.) in utero and the vehicle control (ethanol: Kolliphor HS15: saline (1:1:18, v/v/v), i.p.
To test irritability-like behavior we employed the bottle-brush test modified for rats (Riittinen et al. 1986 Dev Psychobiol 19:105-111). Irritability-like behavior was examined by measuring aggressive and defensive responses during the bottle-brush test carried out in juvenile animals immediately after play behavior evaluation at P30 and again in adult animals on P59. Irritability-like behavior testing was performed under dark conditions with a red light and infrared camera recording. Testing consisted of 10 trials per rat in plastic cages (377×325×170 mm) with fresh bedding. During each trial, the rat was placed at the back of the cage. A bottle-brush was rotated toward the animal's whiskers (from the front of the cage). The brush was rotated around the whiskers of the rat for approximately 1 second. The brush was then rotated back to the front of the cage where it hangs vertically for approximately 2 seconds, during which behavioural responses were recorded. An intertrial interval of 10 second was used.
Employing video analysis of the test, the following were scored as aggressive responses: smelling the brush, biting the brush (during the initial phase of rotating the brush forward and back to the starting position), boxing the target, following the brush, exploring the brush (using paws or mouth to manipulate the brush without biting or boxing), mounting the brush, and delayed biting (during the 2 s that the brush hung at the starting position). Additionally, the following were scored as defensive responses: escaping from the brush, digging, burying, jumping, climbing, vocalization, freezing, and grooming. Frequency of each response and the sum of aggressive and defensive behaviours were recorded.
(§3) All data was assessed for outliers (ROUT; Prism V9.02) and then normality using D'Agostino and Pearson normality test for n=8, or Shapiro-Wilks test for n<8 or unequal groups. Data that were non-normally distributed were analysed using Kruskal-Wallis followed by planned comparisons with Dunn's correction. Normally distributed data were analysed using one-way ANOVA or two-way ANOVA followed by planned comparisons with Sidak's correction. […] Statistical significance was defined as p<0.05 using Prism 9.0.2 software for analysis.

rat VPA model [2] = experiment: Open field test (locomotor activity, circling, grooming, centre zone) P56-57 in rat VPA model (Example 5; DS = DS-E); conditions: adult, risperidone 0.125 mg/kg
Method: as §1, §2
Animals were scored for locomotor activity and exploratory behavior in a two 10-minute trials within an open field arena over two days. Each day the animals were placed into a […] black Perspex box with 30 cm side walls, under low light and monitored via remote video capture for spontaneous activity. Linked to Ethovision XT image analysis software this was analysed for total distance moved and number and duration of center zone crossings. Manual scoring of the videos was then conducted (blinded to treatment group) to determine frequency of circling behavior (number of 360 degree turns) and time spent grooming.
as §3

rat VPA model [3] = experiment: Marble burying test P58 in rat VPA model (Example 5; DS = DS-E); conditions: adult P58, risperidone 0.125 mg/kg
Method: as §1, §2
The marble burying test has been employed as an animal model of anxiety and impulsive behavior. […] Over a 10-minute test period animals were allowed to freely explore the apparatus and subsequently removed whereupon marbles covered by at least one half with bedding were considered buried and this number was recorded and was the main outcome measure for this behavior. Video recording of the test period was evaluated for locomotor activity and scored for frequency and duration of digging behavior.
as §3

rat VPA model [4] = experiment: Social interaction: Social Approach Avoidance (SAA) P60 in rat VPA model (Example 5; DS = DS-E); conditions: adult; risperidone 0.125 mg/kg
Method: as §1, §2
This test was originally used for assessing anxiety-like behavior and subsequently used to assess the social behavior in potential animal models of schizophrenia (Sams-Dodd, 1995 Behav Pharmacol. 6:55) but has been extended to the study of autism models (Schneider and Przewlocki, 2005 Neuropsychopharmacol. 30:80). Therefore, utilising a model based on published designs (Brodkin et al., 2004 Brain Res. 1002:151; Moy et al., 2004 Genes Brain Behav. 3:287) adult animals were assessed for social preference following prenatal VPA exposure whereby a novel animal was introduced to the test arena (n=8). The main outcome measure was the time engaged in active social behavior. Additionally, the time spent in each of the social, non-social and neutral chamber was also determined. […]

[5] = system: valproic acid-induced autism spectrum disorder (ASD) mouse model; experiment: Valproic acid-induced ASD model, bottle-brush test (irritability) (Example 6, Table P); design: key: +: improvement; Ø: no change; −: not tested; conditions: 0.125 mg/kg I.P.
Text: The main objective of the following study was to assess the effect of the drug substance (DS) of Example 1 in ameliorating autism-like behavior in valproic acid-induced autism spectrum disorder (ASD) mouse model (FIGS. 19A-B).

[6] = juvenile P30, 8 days, vs VPA/VEH

## Cc1nc2n(c(=O)c1CCN1CCC(c3noc4cc(F)ccc34)CC1)CCCC2 [Risperidone]
Rat VPA model [1]; adult
  defensive behaviours, bottle brush: no significant effect
Rat VPA model [1]; adult, all days of assessment
  aggressive behaviour, bottle brush: significantly reduced
Rat VPA model [1]; adult, all four assessment days
  irritability score, bottle brush: significantly reduced
Rat VPA model [1]; [6]
  aggressive responses, bottle brush: significantly reduced
  irritability score (aggressive + defensive), bottle brush: no effect
Rat VPA model [2]; day 1
  grooming behaviour: significantly reduced
Rat VPA model [2]; day 1, vs VPA/Veh
  frequency of centre zone crossings: significant decrease
Rat VPA model [2]; day 2
  circling behaviour: significantly reversed
  grooming behaviour: significantly reduced
  number of centre zone crossings: significantly reduced
  time spent in the centre zone: significantly reduced
Rat VPA model [2]; day one
  increase in locomotor activity (distance travelled): significantly prevented
  time spent in the centre zone: significantly reduced
Rat VPA model [2]; day two
  increase in locomotor activity (distance travelled): significantly prevented
Rat VPA model [3]
  VPA-induced digging behaviour: significantly reduced
  number of marbles buried: no significant effect
Rat VPA model [3]; listed as risperidone
  number of marbles buried: significantly reduced
Rat VPA model [4]
  time engaged in active social behaviour (VPA deficit): not prevented
[5]; control beside DS
  Adult bottle brush irritability test: +
  Juvenile bottle brush irritability test: Ø
[5]; control beside sCBD
  Adult bottle brush irritability test: +
  Juvenile bottle brush irritability test: +
[5]; control beside sCBD-2
  Adult bottle brush irritability test: +
  Juvenile bottle brush irritability test: +

From patent publication US20260144805A1, “CANNABIDIOL COMPOSITIONS FOR USE IN THE TREATMENT OF NEURODEGENERATIVE AND NEUROLOGICAL DISORDERS” (JAZZ PHARMACEUTICALS RESEARCH UK LIMITED, priority 2022, published 2026)
